In ChEMBL document CHEMBL1201862, “PubChem BioAssay data set” (2004):
Active and inactive are the calls of the source.

Legend:
[1] = target: T1, Zinc finger protein mex-5 (Caenorhabditis elegans, UniProt Q9XUB2); assay: potency of MEX-5 RNA-binding blockers – biochemical, C. elegans, fluorescence polarization, dose response (AID 1960)
T1 sequence (Q9XUB2 whole entry): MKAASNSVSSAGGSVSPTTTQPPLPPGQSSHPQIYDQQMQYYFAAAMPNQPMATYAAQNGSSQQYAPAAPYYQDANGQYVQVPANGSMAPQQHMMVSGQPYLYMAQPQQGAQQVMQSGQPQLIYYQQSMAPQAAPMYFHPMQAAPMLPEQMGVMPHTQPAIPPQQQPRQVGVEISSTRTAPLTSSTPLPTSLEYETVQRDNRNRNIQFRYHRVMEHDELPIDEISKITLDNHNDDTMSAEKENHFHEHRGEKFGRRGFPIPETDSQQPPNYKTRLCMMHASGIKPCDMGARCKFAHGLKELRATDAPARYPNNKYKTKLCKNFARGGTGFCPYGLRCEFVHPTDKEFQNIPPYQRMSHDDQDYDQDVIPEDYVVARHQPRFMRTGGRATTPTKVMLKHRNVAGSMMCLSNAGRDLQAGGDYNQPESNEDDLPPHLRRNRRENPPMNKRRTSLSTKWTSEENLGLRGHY

[2] = target: T2, RNA-binding protein pos-1 (Caenorhabditis elegans, UniProt G5EF15); assay: disruptors of C. elegans POS-1 RNA interaction – biochemical, fluorescence polarization, dose response (AID 1964);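 also: purified POS-1 fused to maltose binding protein made in E. coli; potency of compounds blocking POS-1 binding to fluorescent RNA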
T2 sequence (G5EF15 whole entry): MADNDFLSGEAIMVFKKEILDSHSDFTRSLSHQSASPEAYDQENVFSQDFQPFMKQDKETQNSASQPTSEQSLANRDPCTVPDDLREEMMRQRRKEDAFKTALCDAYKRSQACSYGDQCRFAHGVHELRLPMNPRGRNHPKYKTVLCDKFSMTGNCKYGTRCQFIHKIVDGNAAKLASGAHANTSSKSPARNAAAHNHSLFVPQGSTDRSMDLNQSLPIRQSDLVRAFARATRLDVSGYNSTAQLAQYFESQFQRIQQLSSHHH

[3] = target: T3, Corticotropin-releasing factor receptor 2/Corticotropin-releasing factor-binding protein (Homo sapiens, UniProt P24387+Q13324); assay: activators of CRF receptor 2 with binding protein – uHTS hits, confirmation (AID 602473); format: functional; settings: read-out: EC50_Mean
T3 sequence (Q13324 whole entry): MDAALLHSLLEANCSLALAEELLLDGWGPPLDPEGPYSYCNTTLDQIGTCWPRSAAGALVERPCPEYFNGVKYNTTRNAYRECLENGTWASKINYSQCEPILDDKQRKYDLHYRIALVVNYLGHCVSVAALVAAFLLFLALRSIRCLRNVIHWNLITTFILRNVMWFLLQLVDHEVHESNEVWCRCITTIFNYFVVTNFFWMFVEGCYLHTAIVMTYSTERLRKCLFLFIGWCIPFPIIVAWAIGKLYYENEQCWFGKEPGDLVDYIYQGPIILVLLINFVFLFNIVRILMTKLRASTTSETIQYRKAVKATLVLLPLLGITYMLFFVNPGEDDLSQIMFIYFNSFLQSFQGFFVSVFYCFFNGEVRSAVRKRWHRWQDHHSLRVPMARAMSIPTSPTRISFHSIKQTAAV
T3 sequence (P24387 whole entry): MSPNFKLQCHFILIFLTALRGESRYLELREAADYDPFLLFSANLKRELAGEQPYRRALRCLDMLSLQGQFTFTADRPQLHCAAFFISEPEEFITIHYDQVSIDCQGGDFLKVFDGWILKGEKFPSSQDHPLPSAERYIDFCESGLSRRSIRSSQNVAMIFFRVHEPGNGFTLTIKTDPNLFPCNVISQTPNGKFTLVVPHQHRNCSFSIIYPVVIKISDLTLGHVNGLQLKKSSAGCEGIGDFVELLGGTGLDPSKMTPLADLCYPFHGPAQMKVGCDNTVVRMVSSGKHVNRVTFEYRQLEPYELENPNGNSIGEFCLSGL

[4] = target: T4, Endoribonuclease toxin MazF (Escherichia coli K-12, UniProt P0AE70); assay: substrate-only fluorescence increase artefacts – biochemical, single-stranded RNase substrate, counter-screen for MazEF activator project, dose response (AID 588502); format: functional
T4 sequence (P0AE70 whole entry): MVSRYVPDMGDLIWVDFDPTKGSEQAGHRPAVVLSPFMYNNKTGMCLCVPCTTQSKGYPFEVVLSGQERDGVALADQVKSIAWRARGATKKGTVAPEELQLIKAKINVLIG

[5] = target: T4, Endoribonuclease toxin MazF; assay: activation of MazEF endoribonuclease cleavage – biochemical, fluorescence, single-stranded RNA substrate, uHTS hits, dose response (AID 588481); format: functional
[6] = target: T5, DNA repair protein RAD52 homolog (Homo sapiens, UniProt P43351); format: functional, biochemical
T5 sequence (P43351 whole entry): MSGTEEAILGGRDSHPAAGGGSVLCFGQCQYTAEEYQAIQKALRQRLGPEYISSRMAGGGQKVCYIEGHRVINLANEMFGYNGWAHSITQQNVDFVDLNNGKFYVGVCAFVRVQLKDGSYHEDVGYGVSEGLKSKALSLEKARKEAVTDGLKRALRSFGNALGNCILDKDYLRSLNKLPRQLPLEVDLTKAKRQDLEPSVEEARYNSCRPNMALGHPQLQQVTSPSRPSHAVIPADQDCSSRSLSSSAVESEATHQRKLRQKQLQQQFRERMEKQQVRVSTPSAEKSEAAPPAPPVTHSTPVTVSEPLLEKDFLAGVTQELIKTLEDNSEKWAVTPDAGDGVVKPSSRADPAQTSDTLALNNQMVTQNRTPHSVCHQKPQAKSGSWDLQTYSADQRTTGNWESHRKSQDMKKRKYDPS

fMet-Leu-Phe receptor = target: T6, fMet-Leu-Phe receptor (Homo sapiens, UniProt P21462); assay: formyl peptide receptor binders – dose response (AID 519); format: functional
T6 sequence (P21462 whole entry): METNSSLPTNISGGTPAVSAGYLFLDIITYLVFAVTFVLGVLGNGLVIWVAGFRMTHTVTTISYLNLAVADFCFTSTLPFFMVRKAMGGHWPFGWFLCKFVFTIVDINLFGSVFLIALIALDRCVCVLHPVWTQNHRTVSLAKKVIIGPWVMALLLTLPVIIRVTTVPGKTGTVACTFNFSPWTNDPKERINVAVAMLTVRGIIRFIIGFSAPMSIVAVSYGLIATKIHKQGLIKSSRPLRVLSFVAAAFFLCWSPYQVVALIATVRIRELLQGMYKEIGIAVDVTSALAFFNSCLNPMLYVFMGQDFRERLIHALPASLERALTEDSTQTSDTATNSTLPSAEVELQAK

[7] = target: T7, Histone-lysine N-methyltransferase NSD2 (Homo sapiens, UniProt O96028); format: biochemical
T7 sequence (O96028 whole entry): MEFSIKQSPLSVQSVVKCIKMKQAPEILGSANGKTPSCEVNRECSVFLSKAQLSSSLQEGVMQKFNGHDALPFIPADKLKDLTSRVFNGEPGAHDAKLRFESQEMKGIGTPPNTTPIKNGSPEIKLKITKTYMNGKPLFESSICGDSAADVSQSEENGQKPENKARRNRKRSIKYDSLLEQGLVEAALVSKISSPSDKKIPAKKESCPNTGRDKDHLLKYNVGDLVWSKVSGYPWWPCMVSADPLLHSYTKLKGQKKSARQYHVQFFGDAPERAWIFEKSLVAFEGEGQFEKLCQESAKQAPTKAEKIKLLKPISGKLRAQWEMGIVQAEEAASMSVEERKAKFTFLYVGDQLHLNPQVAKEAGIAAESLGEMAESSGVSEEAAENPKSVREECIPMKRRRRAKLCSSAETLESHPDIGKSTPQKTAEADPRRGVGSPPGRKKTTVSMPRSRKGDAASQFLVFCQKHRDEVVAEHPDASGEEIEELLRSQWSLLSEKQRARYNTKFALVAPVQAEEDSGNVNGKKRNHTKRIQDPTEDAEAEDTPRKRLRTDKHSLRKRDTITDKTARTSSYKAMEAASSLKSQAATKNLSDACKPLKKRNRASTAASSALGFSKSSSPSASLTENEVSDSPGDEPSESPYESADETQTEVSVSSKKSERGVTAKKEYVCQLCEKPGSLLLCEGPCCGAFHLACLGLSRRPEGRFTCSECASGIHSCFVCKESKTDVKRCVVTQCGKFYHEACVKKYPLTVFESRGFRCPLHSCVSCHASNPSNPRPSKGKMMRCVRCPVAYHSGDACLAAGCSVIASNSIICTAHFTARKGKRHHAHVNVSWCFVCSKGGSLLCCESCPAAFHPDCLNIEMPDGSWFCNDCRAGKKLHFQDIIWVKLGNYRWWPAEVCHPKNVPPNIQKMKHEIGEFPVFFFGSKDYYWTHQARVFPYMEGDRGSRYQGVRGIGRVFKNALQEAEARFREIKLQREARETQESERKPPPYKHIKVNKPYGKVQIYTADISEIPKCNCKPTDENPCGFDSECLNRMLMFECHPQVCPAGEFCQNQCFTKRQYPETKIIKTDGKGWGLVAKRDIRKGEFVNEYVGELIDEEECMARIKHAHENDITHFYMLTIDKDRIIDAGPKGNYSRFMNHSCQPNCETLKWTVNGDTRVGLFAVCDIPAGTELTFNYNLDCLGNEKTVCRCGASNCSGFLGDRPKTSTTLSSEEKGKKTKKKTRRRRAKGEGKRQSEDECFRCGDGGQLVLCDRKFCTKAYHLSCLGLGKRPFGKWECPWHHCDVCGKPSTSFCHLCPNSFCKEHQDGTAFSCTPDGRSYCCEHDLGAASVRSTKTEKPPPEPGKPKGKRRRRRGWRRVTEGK

Compound: Cn1cc(C=C2C(=O)NC(=O)NC2=O)c2ccccc21
- EC50 [1]: 5.82 µM (inconclusive)
- EC50 [2]: 6.99 µM (inconclusive)
- EC50 [3]: 24.1 µM (active)
- EC50 [4]: 21.1 µM (inactive)
- EC50 [5]: > 99 µM (inactive)

Compound: CSc1nc(NCCCN(C)C)c2c3c(sc2n1)CN(C)CC3
- AC50 [6]: 10.1 µM (active)

Compound: COCCN=C(S)Nc1ccc2nc(N3CCN(C)CC3)cc(C)c2c1
- AC50 [6]: 13.2 µM (active)

Compound: CCOC(=O)N1CCC(NC(=O)c2cc(C(=O)Nc3ccc(OC)c(OC)c3)ccc2CO)CC1
- Ki (fMet-Leu-Phe receptor): > 66.7 µM (inactive)

Compound: COc1ccc(OC)c(C2C(C(=O)c3ccco3)=C(O)C(=O)N2CCCN2CCOCC2)c1 (stereo not given)
- Ki (fMet-Leu-Phe receptor): 26.4 µM (inactive)

Compound: O=C(NCC1CC1)c1ccc(-n2ccnc2)c2ccoc12
- AC50 [7]: 14.1 µM (active)
